The test system of assay [1] is IFN-γ secreting spleen cells / DLN cells. In words: IFN-γ Elispot assay on splenocytes or draining lymph node cells of peptide-vaccinated mice. The class given is in vivo, C57BL/6 mice. The following applies: for IFN-γ secreting cells per million fresh DLN cells: stimulated with syngeneic VEGFR-2/KDR expressing H5V cells, FIG. 2C. The source says:
FIGS. 2A-C are bar graphs representing the results of IFN-Eli spot assays. Four groups of mice (5 mice per group) were vaccinated with different peptides (KDR1, KDR2, KDR3). Mice were sacrificed, spleen or drained lymph nodes (DLN) cells prepared as described in methods section served as effectors. Syngeneic EL4 cells (3,000 rads) pulsed with peptides or H5V cells after treated with MMC served as stimulators. Irradiated EL4 without peptide or MMC treated allogeneic bEND3 cells as control. Dot bar: EL4 pulsed with irrelevant peptide as negative control; Solid bar: EL4 pulsed with KDR2 or KDR3 respectively; Open bar: EL4 without any peptide; A. Results of fresh spleen cells; B. Results of spleen cells after 1 week restimulation in vitro; C. Cells from fresh drained lymph nodes stimulated with H5V or bEND3 cells.
Mice were immunized with selected peptide, together with murine GM-CSF and anti-mouse CD40 as adjuvants. An emulsion containing 50 μl Incomplete Freud's Adjuvants (IFA, Sigma) with or without 100 […] of peptide and 5 μg murine GM-CSF (Pepro Tech), 20 μg anti-murine CD40 monoclonal antibody (Southern Biotech, Clone number 1C10) was prepared in a final volume of 100 μl. Subcutaneous injections were performed on the tails of the mice with 1 ml syringes and 30 gauge needles. For the Matrigel Plug Assay, two boosts were injected at 4 week intervals.
IFN-γ Elispots assay was performed on draining lymph nodes cells (DLN) or splenocytes collected 2 weeks after vaccination to evaluate the antigen specific immune response against the VEGFR-2/KDR peptides. Elispot plates (Millipore, Bedford, Mass.) were coated with 8 μg of anti-gamma interferon (IFN-γ) antibody per ml in sterile phosphate-buffered saline (PBS) overnight at 4° C. Plates were washed and then blocked with RPMI 1640 with 10% FBS. Fresh splenocytes or cells after 1 week in vitro restimulation were used as effectors. 1 or 5×10^5 effector cells were co-cultured overnight with or without 2×10^5 irradiated (3,000 rads) EL4 cells in 200 μl media at 37° C., 5% CO2 in the presence of appropriate concentration of peptide. When H5V and bEND3 cells in stead of EL4 were used as stimulators, they were treated with 0.1 mg/ml mitomycin C (Sigma, St. Louis) for half an hour at 37° C., then wash three times with PBS. 5×10^4H5V or bEND3 cells were co-cultured overnight with 2×10^5 draining lymph nodes cells. Spots were developed as previously described using biotin-conjugated anti-cytokine antibodies (Endogen, Boston, Mass.) and streptavidin-horseradish peroxidase in 1% BSA-PBS.

The next assay relates to H5V endothelial cells. In words: 4-hour 51Cr release assay, CTLs from immunized mice, endothelial cell targets. The assay is classed as cell-based, mouse. The conditions noted are these: for Percentage of lyses by induced CTLs, control: control for H5V; for Percentage of lyses by induced CTLs, control / Percentage of lyses by induced CTLs: E:T ratio 50:1; for Lysis of H5V cells and peptide-pulsed EL4 by induced CTLs (in words): not bEND3 or EL4 alone, FIG. 4; for Percentage of lyses by induced CTLs: targets H5V. The protocol: (§1) FIGS. 4A-D are line graphs illustrating the results of standard 4 hr ^51Cr release test. Three weeks after immunization, spleen cells were prepared from immunized mice (4-5 mice per group) and restimulated with vaccinated peptides in a 24-well plate in the presence of RPMI 1640 (Invitrogen) with 10% FCS. 10% T-stim was added 48 hours later into the culture media and the cells were incubated for 5 days at 37° C. The CTL activity was tested in a 4-hour ^51Cr release assay. Target cells include VEGFR-2/KDR+H5V (H-2d) and bEND3 (H-2b) endothelial cells, VEGFR-2/KDR-EL4 cells pulsed with peptides or EL4 alone. The percentage of specific lysis was calculated using the formula: (experimental release−spontaneous release)/(maximum release−spontaneous release)×100. Upper panel: effector cells from mice immunized with KDR2, Lower panel: effectors from KDR3 immunized mice.
(§2) Chromium (^51Cr) Release Assays were used to determine whether T cells identified as binding to VEGFR-2/KDR specifically targeted endothelial cells. Mice were vaccinated twice with 5 μg GM-CSF, 20 μg anti-CD40 and 100 μg peptide per mice. Briefly, spleen cells were prepared from immunized mice (4-5 mice per group) and restimulated with the vaccinated peptides in 24-well plates in RPMI 1640 (Invitrogen) with 10% FCS. Forty-eight hours later, 10% T-stim (BD Bioscience) was added into the culture media. CTL activity was tested in a 4-hour ^51Cr release assay 5 days later. VEGFR-2/KDR+syngeneic H5V (H-2d), allogeneic bEND3 (H-2b) endothelial cells and VEGFR-2/KDR syngeneic EL4 cells pulsed with peptides or EL4 alone served as target cells. The percentage cytotoxicity was calculated using the formula: (experimental release−spontaneous release)/(maximum release−spontaneous release)×100.

In the next assay the target is T1, H-2 Db (Mus musculus, UniProt P01899).
T1 construct: enhance surface expression of the respective MHC class I molecules on these cells by stabilizing the peptide-MHC complex; endogenous in cells; host or cells: RMA-S (H-2b) cells
T1 sequence (P01899 25-362): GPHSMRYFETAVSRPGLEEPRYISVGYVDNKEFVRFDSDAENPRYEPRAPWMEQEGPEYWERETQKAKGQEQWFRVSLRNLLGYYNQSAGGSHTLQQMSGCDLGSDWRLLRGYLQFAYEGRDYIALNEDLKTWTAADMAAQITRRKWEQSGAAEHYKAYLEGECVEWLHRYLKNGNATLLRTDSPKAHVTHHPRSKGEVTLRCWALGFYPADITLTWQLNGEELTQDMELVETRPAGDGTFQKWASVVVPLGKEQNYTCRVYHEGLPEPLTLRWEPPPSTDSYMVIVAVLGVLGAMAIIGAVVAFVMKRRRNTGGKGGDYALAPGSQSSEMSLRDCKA
T1 sequence (P01887 21-119 partner): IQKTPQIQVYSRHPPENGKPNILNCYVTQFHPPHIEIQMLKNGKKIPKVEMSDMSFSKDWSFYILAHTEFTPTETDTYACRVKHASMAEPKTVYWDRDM
In words: RMA-S binding assay (MHC stabilization, flow cytometry). The following applies: for Concentration at FI=0.5: RMA-S cells loaded 16 to 18 h at 37° C, FI = fluorescence with peptide/without peptide - 1; for Binding to H-2 Db (in words): RMA-S cells, FIG. 1. How it is done: FIG. 1 is a line graph illustrating results of an RMA-S binding assay. KDR2 and KDR3 bind efficiently to H-2 Db molecules. RMA-S cells were loaded with various peptides for 16 to 18 h at 37° C. Levels of surface class I molecules were assessed by flow cytometric analysis using mouse monoclonal antibodies specific for H-2 Db. FI=Fluoresce measurement after peptides stimulation/Fluoresce measurement without peptide-1. : KDR1, ▴: KDR2, : KDR3, ◯: wild type P53 264-272, : HPV 16 E7 49-57. HPV E7 49-57 and Human P53 264-272 serve as positive and negative control respectively. The results shown here are representative of three separate experiments.
To test the binding affinity of these peptides to H-2 Db, an RMA-S binding experiment was performed, and the FI value in the assay was measured. […] The RMA-Binding assays were performed as previously described (Lyman et al., J. Virol. 76:3125-3134, 2002). Briefly, synthetic peptides were dissolved in dimethyl sulfoxide before dilution. For MHC-binding assays, RMA-S cells were loaded with various peptides for 16 to 18 h at 37° C. Levels of surface class I molecules were assessed by flow cytometric analysis (FACScan; Becton Dickinson) using mouse monoclonal antibodies specific for H-2 Db (Southern Biotech, clone No. 28-14-8). FI=Fluorescence after peptides stimulation/Fluorescence without peptide-1.
Previous data have shown that the HPV16E7 49-57 can bind to H-2 Db molecules efficiently and induce a strong CTL response in B6 mice (Feltkamp et al., Eur. J. Immunol. 23:2242-2249, 1993). HPV16E7 49-57 peptide was used as a positive control; and the human P53 264-272, known to bind HLA-A2 but not H-2 Db, was used as a negative control (FIG. 1).

For assay [2], the system named is EL4 cells pulsed with peptides. In words: 4-hour 51Cr release assay, CTLs from immunized mice, EL4 targets. The class given is cell-based, mouse. The conditions noted are these: E:T ratio 50:1; for Percentage of lyses by induced CTLs, control: control for EL4 pulsed with peptide; for Percentage of lyses by induced CTLs: targets EL4 pulsed with the vaccinated peptide. The protocol: as §1, §2

Another assay has as its target T2, HLA-A2 (Homo sapiens, UniProt P04439, D140Y/D185E/D98H/E176V/E277Q/G131W/G231S/I119V/I121R/I166T/I218V/L300P/L318F/N151K/N90K/P208A/P217A/Q86G/Q94H/R138H/R169H/T345S).
T2 construct: endogenous in cells; host or cells: T2 cells
Nature of the assay: T2 binding assay (HLA-A2 stabilization). The conditions noted are these: T2 cells, FIG. 7. The source says: The ability of any of the above described peptides to bind MHC Class I can be confirmed using assays available in the art. For example, the ability of a murine VEGFR-2/KDR peptide to bind a mouse Class I molecule, such as H-2 Db can be determined in a MHC stabilization assay employing RMA-S cells as described in Lyman et al., J. Virol. 76:3125-3134, 2002, and in the EXAMPLES Section below. The ability of a human VEGFR-2/KDR peptide to bind a human Class I molecule, such as an HLA-A2 protein can be evaluated in a T2 MHC binding assay as described by Cerundolo et al., Nature 342:449-452, 1990. In brief, T2 cells are cultured in RPMI1640 with 10% FBS, and grown in 5% CO2 at 37° C. […] The level of stabilized HLA-A2 on the surface of the T2 cells is detected using the pan HLA class I monoclonal antibody W6/32 (European Collection of Animal Cell Cultures (ECACC), Porton Down, Salisbury) that recognizes stabilized HLA-A2 complexes. The primary monoclonal antibody can be labeled or can be detected using, e.g., a labeled goat antimouse IgG (Cambridge Biosciences, Cambridge, United Kingdom) as the second layer. Samples are fixed in 1% paraformaldehyde in PBS prior to analysis and analyzed on a Becton Dickinson FACSCAN®. […]

Regarding “LLSEKNVVKI [KDR1, murine VEGFR-2/KDR peptide, location 1033-1042]”, the “IFN-γ secreting cells relative to background after 1 week in vitro culture with the vaccinated peptide” value in assay [1] (spleen cells restimulated 1 week in vitro, FIG. 2B) is recorded as “remained negative”.

For “FSNSTNDILI [KDR3, murine VEGFR-2/KDR peptide, location 615-624]”, in the assay on H5V endothelial cells, the “Percentage of lyses by induced CTLs, control” value (“Percentage of lyses … control” below) was 3%; the “Lysis of H5V cells and peptide-pulsed EL4 by induced CTLs (in words)” value is given as “can lyse”; the “Percentage of lyses by induced CTLs” value is 13%. For the same substance, the “Number of IFN-γ secreting fresh spleen cells after pulsing with peptide” value in assay [1] (fresh spleen cells of vaccinated mice, FIG. 2A) amounted to 176. For the same substance, in assay [1] (FIG. 2A), the “IFN-γ secreting fresh spleen cells relative to irrelevant HPV E7 peptide / background” value is recorded as “about 6 times”. Also, the “IFN-γ secreting cells per million fresh DLN cells” value in assay [1] is 161 per million cells. In the assay with H-2 Db, the “Concentration at FI=0.5” value is “about 3 μM” and the “Binding to H-2 Db (in words)” value is on record as “bind well”. Also, in assay [2], the “Percentage of lyses … control” value was 0% and the “Percentage of lyses by induced CTLs” value was found to be 21%.

Turning to “VILTNPISM [KDR2, murine VEGFR-2/KDR peptide, location 400-408]”, in the assay on H5V endothelial cells, the “Percentage of lyses … control” value is listed as roughly 1%; the “Lysis of H5V cells and peptide-pulsed EL4 by induced CTLs (in words)” value is “can lyse”; the “Percentage of lyses by induced CTLs” value stood at 28%. Further, in assay [1] (FIG. 2A), the “IFN-γ secreting fresh spleen cells relative to irrelevant HPV E7 peptide / background” value is listed as “about 50 times”. Moreover, in assay [1], the “IFN-γ secreting cells per million fresh DLN cells” value is on record as 360 per million cells. For the same substance, in the assay with H-2 Db, the “Concentration at FI=0.5” value is given as “about 24 μM” and the “Binding to H-2 Db (in words)” value is recorded as “bind well”. Besides, in assay [2], the “Percentage of lyses … control” value was “about 8%” and the “Percentage of lyses by induced CTLs” value is 25%.

In the case of “P53 264-272: human P53 264-272 peptide, binds HLA-A2 but not H-2 Db, negative control [reference compound]”, in the assay with H-2 Db, the “Concentration at FI=0.5” value was greater than 200 µM and the “Binding to H-2 Db (in words)” value is on record as “does not bind”.

As for “HPV16E7 49-57: Human Papilloma Virus 16E7 49-57 peptide, known H-2 Db binder, positive control (RAHYNIVTF) [reference compound]”, in the assay with H-2 Db, the “Concentration at FI=0.5” value is reported as “about 12.5 μM”.

Regarding “AMFFWLLLV [KDR775, human VEGFR-2/KDR peptide]”, the “Affinity for MHC molecules relative to the other peptides (in words)” value in the assay with HLA-A2 is on record as “substantially higher affinity”.

Values taken from US8378071B2, “Peptide epitopes of VEGFR-2/KDR that inhibit angiogenesis” (The United States of America as Represented by the …, priority 2005, dated 2013).
